# From patent publication US7648959B2, “Methods and compositions for the treatment of diseases of the eye” (Merck Patent GmbH, priority 2000, dated 2010)
# Values joined by “and” are separate entries in the source; they are usually repeats but may differ in a detail not shown here. Equal values may be shown once.
# Test system: bFGF-Stimulated Corneal Angiogenesis
# Assay: rabbit corneal micropocket model, paralimbal intrascleral injection
# Type: in vivo
# Details: for Area of neovascularisation, MEAN / Area of neovascularisation (individual eye): single (Day 0) intrascleral injection, 100 μl, 2.0 mg/ml in PBS; for Area of neovascularisation, MEAN: mean of 12 eyes; for Area of neovascularisation (individual eye): one value per rabbit eye (R/L); for neovascularisation inhibited compared to the animal group receiving PBS only: single intrascleral injection 100 μl, 2.0 mg/ml, p<0.01
# Protocol: (1996). In this model angiogenesis is stimulated by implantation of Hydron pellets containing an angiogenesis stimulating cytokine like, for example, fibroblast growth factor (FGF) or vascular endothelial growth factor (VEGF) into the cornea. After implantation the active compound to be tested is administered by paralimbal intrascleral injection. Effect on neovascularisation is measured after predetermined time intervals by visual examination using a microscope, photographing and computer-assisted quantification of photographs.
# The effect of intrascleral application of an αvβ3 and/or αvβ5 inhibitor was examined in rabbit corneal micropocket model as described by Shaffer R. W. (see above). As an example for an αvβ3 and/or αvβ5 inhibitor (2S)-2-(2,2-dimethylpropyloxycarboxamido)-3-{3,4-dihydro-2-[N-(2-imidazolyl)carbamoylethyl]-(2S)-2H-1,4-benzoxazin-3-on-6-yl}propionic acid was used in the experiment. For induction of angiogenesis Hydron pellets containing basic fibroblast growth factor (bFGF) were used. Preparation of bFGF containing implants was performed by casting Hydron [poly(hydroxyethyl)methacrylate] in specially prepared Teflon pegs that have a 5 mm core drilled into their surfaces. Approximately 12 μl of casting material was placed into each peg and polymerized overnight in a sterile hood, then sterilized by ultraviolet irradiation.
# The experiment consisted of 12 animals; in each eye of the animals one individual pellet was implanted into a surgically created “pocket” in the mid stroma of the rabbit cornea. The surgical procedure was done under sterile technique using a Wild model M691 operating microscope equipped with a beamsplitter and camera for photographically recording individual corneas. A 69 Beaver blade was used to create a 3 mm by 5 mm “pocket” to a depth of half the corneal thickness. The stroma was dissected peripherally using an spatula and the pellet implanted with its peripheral margin 2 mm from limbus. Immediately after implantation of bFGF-containing Hydron pellets 6 of the 12 animals received in each eye 100 μl of a drug solution consisting of 2.0 mg/ml (2S)-2-(2,2-dimethylpropyloxycarboxamido)-3-3,4-dihydro-2-[N-(2-imidazolyl)carbamoylethyl]-(2S)-2H-1,4-benzoxazin-3-on-6-yl}propionic acid solubilized in phosphate buffered saline (PBS) by paralimbal intrascleral injection. For comparison the same procedure was performed in the other 6 animals using PBS only. Following implantation the eyes were photographed and the area of neovascularisation measured after predetermined intervals.
compound,measurement,setting,value
"CC(C)(C)COC(=O)N[C@@H](Cc1ccc2c(c1)NC(=O)[C@H](CCC(=O)Nc1ncc[nH]1)O2)C(=O)O [(2S)-2-(2,2-dimethylpropyloxycarboxamido)-3-{3,4-dihydro-2-[N-(2-imidazolyl)carbamoylethyl]-(2S)-2H-1,4-benzoxazin-3-on-6-yl}propionic acid]","Area of neovascularisation, MEAN",5 Day Post-Implantation,8.39 mm^2
same,Area of neovascularisation (individual eye),5 Day Post-Implantation,3.47 mm^2 and 26.79 mm^2 and 14.76 mm^2 and 7.70 mm^2 and 1.00 mm^2 and 0.88 mm^2 and 8.19 mm^2 and 2.26 mm^2 and 0.0 mm^2 and 7.31 mm^2 and 15.85 mm^2 and 12.45 mm^2
same,"Area of neovascularisation, MEAN",7 Day Post-Implantation,10.32 mm^2
same,Area of neovascularisation (individual eye),7 Day Post-Implantation,6.69 mm^2 and 27.96 mm^2 and 15.58 mm^2 and 11.32 mm^2 and 2.09 mm^2 and 1.91 mm^2 and 11.93 mm^2 and 3.51 mm^2 and 0.0 mm^2 and 11.56 mm^2 and 16.90 mm^2 and 14.40 mm^2
same,neovascularisation inhibited compared to the animal group receiving PBS only,5 days post implantation,56.5%
same,neovascularisation inhibited compared to the animal group receiving PBS only,7 days post implantation,52.3%
